pIC50: −log10 of the molar value. Several values for one entry are separate records, joined by “and”; a condition that tells them apart may be missing. Equal values may be shown once.
Tests used:
HEK293 cells [1] = experiment: Detection of H2S production in live cells (AzMC imaging); type: cell-based, human
Method: Cell culture. The human embryonic kidney cell line HEK293 (ATCC CRL-1573) was cultured in Dulbecco’s Modified Eagle Medium (DMEM) containing 4.5 g/L glucose. The culture medium was supplemented with 10% (v/v) heat-inactivated fetal bovine serum, 2 mM Glutamax, non-essential amino acids, 100 U/ml penicillin and 100 μg/ml streptomycin. Cells were grown in a humidified incubator at 37 °C and 5% CO2 atmosphere. Cell viability and proliferation were assessed using MTT and BrdU assay, respectively, essentially as described previously. Detection of H2S production in live cells. Cells were seeded in black 96-well plates with optical bottom (15,000 cells/well). The following morning, the cells were treated with 150 µM AOAA, 1/3/10 mM Ser or their combination for 24 h. After that the culture medium was replaced with Hank’s Balanced Salt Solution (HBSS) buffer supplemented with 100 μM AzMC and further incubated for 1 h. Dye’s specific fluorescence was visualized using a Leica DFC360 FX microscope and images were captured with Leica Application Suite X software (Leica Biosystems, Germany). Images were analyzed with ImageJ software (version 1.8.0; NIH, Bethesda, MD, USA) and data were analyzed using GraphPad Prism 8 (GraphPad Software Inc.; San Diego, CA, USA).

HEK293 cells [2] = experiment: Bioenergetic analysis (Seahorse XFe24 flux analyzer); type: cell-based, human
Method: Bioenergetic analysis. The Seahorse XFe24 flux analyzer (Agilent Technologies, Santa Clara, CA, USA) was used to estimate mitochondrial respiration of HEK293 cells. Cells were seeded in Seahorse XFe24 Cell Culture Microplates at density of 15,000 cells/well in a total volume of 200 µl, incubated for 2 h, followed by treatment for 24 h as described above for H2S live imaging. Next day, culture medium was replaced for Seahorse XF DMEM supplemented with 2 mM glutamine, 1 mM pyruvate and 10 mM glucose. The microplate was then incubated in a CO2-free incubator at 37°C for 1 h, to allow temperature and pH equilibration, as recommended by the manufacturer. The assay protocol included two measurements of basal values of oxygen consumption rate (OCR), followed by the injection of 1 µM oligomycin, used to evaluate ATP generation rate. Subsequently, the mitochondrial oxidative phosphorylation uncoupler FCCP (0.2 µM) was added to estimate maximal mitochondrial respiratory capacity. Lastly, 0.5 µM of rotenone and antimycin A (each) were injected to inhibit the electron flux through the complex I and III, respectively, aiming to detect the extra-mitochondrial OCR. Data were analyzed with Wave package (version 2.6; Agilent Technologies, Santa Clara, CA, USA) and GraphPad Prism 8 (GraphPad Software Inc.; San Diego, CA, USA).

tScCBS [3] = molecular target: T1, tScCBS (Saccharomyces cerevisiae, UniProt P32582); experiment: Kinetics of AOAA binding to tScCBS and displacement by substrate, followed by absorption spectra
T1 construct: 6xHis (C); made in house
T1 sequence (P32582 1-345): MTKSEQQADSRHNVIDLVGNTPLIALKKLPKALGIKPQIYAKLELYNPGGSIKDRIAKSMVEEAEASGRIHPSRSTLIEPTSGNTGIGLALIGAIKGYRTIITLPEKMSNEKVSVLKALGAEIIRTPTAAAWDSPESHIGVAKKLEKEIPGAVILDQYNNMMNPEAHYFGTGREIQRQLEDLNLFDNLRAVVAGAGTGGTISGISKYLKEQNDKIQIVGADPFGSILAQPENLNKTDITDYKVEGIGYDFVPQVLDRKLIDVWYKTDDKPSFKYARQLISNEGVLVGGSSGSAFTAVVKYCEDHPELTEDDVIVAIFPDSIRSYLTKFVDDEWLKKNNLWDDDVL
Method: UV − Vis and fluorescence spectroscopy. Absorption spectra were collected on a Tecan Infinite M200 Pro spectrophotometer in a buffer containing 50 mM Tris–HCl pH 8.5, 20 mM NaCl and 0.5 mM tris(2-carboxyethyl)phosphine (TCEP). All the spectra were carried out with a protein concentration of 1 mg/mL with a 1 cm path-length quartz cuvette in a total volume of 150 µL. tScCBS was titrated directly in a cuvette by successive additions of different concentrations of AOAA, Ser and Cys, respectively, and spectra were recorded between 240 and 600 nm after an incubation time of 3 min at RT. Fluorescence emission spectra were collected under the same conditions upon PLP excitation at 410 nm. Blank spectra were subtracted from sample spectra.
Fig. 2 Spectroscopic rescue of AOAA-inhibited tScCBS by Ser. A Changes in the absorption spectra of tScCBS upon addition of 20 µM AOAA (cyan lines) followed for 1 h. Subsequently, 1 mM Ser (gray lines) was added and spectral changes were followed for additional 1 h. B Representative kinetic fitting of AOAA binding to tScCBS followed at 412 nm. C Representative kinetic fitting of AOAA displacement from tScCBS by Ser by following changes at 370 nm and 460 nm. The kinetic parameters of the observed processes are shown as insets in panels B and C. Far-UV (D) and near-UV (E) CD spectra of tScCBS (black), tScCBS complexed with 20 µM AOAA (cyan) or 1 mM Ser (magenta) and tScCBS complexed with 20 µM AOAA followed by 1 h incubation with 1 mM Ser (green).

tScCBS [4] = molecular target: T1, tScCBS; experiment: CBS H2S production assay (AzMC fluorometric), tScCBS; type: biochemical
Method: CBS H2S production assay. H2S-producing activity of CBS, utilizing Cys and Hcy, was determined using a fluorometric assay employing the H2S-selective fluorescent probe 7-azido-4-methylcoumarin (AzMC) as described previously. The reaction mixture in a total volume of 200 µL contained 50 mM Tris–HCl pH 8.6, 5 μM PLP, 2 mM Hcy, 10 μM AzMC and 500 ng tScCBS or HsCBS. The plate was incubated for 10 min at 37°C and the enzymatic activity was triggered by adding 0–50 mM Cys. The fluorescence of the mixtures at 450 nm (excited at 365 nm) was followed for 2 h at 37°C. All measurements were performed in triplicates using Tecan Infinite 200 PRO microplate reader. Kinetic data were analyzed using GraphPad Prism software.

| Rate constant k of AOAA displacement from tScCBS by Ser (tScCBS [3]; 1 mM Ser added after 1 h with 20 µM AOAA, changes at 370 nm and 460 nm) [min⁻¹] | Slower formation of PLP-aminoacrylate intermediate compared with PLP-AOAA oxime formation (tScCBS [3]; 1 mM Ser after 20 µM AOAA) | Recovery of activity of AOAA-inhibited enzyme (tScCBS [4]; tScCBS, 1 mM Ser after 200 µM AOAA incubation, then desalting) | SMILES | Reduction of cellular H2S productivity (HEK293 cells [1]; HEK293, 10 mM Ser in growth medium) | Reduction of H2S production (HEK293 cells [1]; HEK293, Ser added to medium (1/3/10 mM, 24 h), concentration-dependent, 'up to') | Recovery of H2S-producing capacity, % of control WT activity (HEK293 cells [1]; HEK293 inhibited by 150 µM AOAA, with 1, 3 or 10 mM Ser) | Impact on mitochondrial function (HEK293 cells [2]; HEK293, 1, 3 and 10 mM Ser alone, 24 h) | Cellular bioenergetics compared to untreated controls (HEK293 cells [2]; HEK293 inhibited by 150 µM AOAA, supplemented with 1, 3 or 10 mM Ser) | H2S-producing activity, % of the controls (HEK293 cells [1]; HEK293, 150 µM AOAA, 24 h) | Bioenergetics parameters (basal respiration, maximal respiration, ATP production) (HEK293 cells [2]; HEK293, 150 µM AOAA, 24 h) | Rate constant k of PLP-AOAA oxime intermediate formation (tScCBS [3]; 20 µM AOAA added to tScCBS, followed at 412 nm) | Inhibition of CBS activity (tScCBS [4]; 200 µM AOAA, then excess removed by desalting column, range printed for tScCBS and HsCBS together) | pIC50 (tScCBS [4]; tScCBS, AzMC assay, 5 mM Cys + 2 mM Hcy) |
| --- | --- | --- | --- | --- | --- | --- | --- | --- | --- | --- | --- | --- | --- |
| 0.07 ± 0.01 | approximately 3 × | substantial recovery | N[C@@H](CO)C(=O)O [Ser, serine] | ~ 29% | ~ 30% | 82–89% | did not have any significant impact | correction or normalization |  |  |  |  |  |
|  |  |  | NOCC(=O)O [AOAA, aminooxyacetic acid] |  |  |  |  |  | ~ 15% | significant decrease | 0.22 min⁻¹ and 0.22 ± 0.05 min⁻¹ | 75–92% | 5.04 |
